Results on 1 molecule are retold here after paper PMC12587574, “Mass balance, pharmacokinetics, metabolism, and excretion of radiolabeled acoziborole, a potential novel treatment for human African trypanosomiasis, following single microtracer oral dose to humans” (Antimicrobial Agents and Chemotherapy, 2025).

Molecules are shown by their SMILES. Where two headings read alike, the source gives them in different places.

Series [1] is described as follows: Metabolite profiling and identification in pools of plasma, urine and feces (UPLC-MS, AMS). Type of series: in vivo, human. The protocol: Individual pools of plasma (0–336 h, including time points at 1, 4, 9, 12, 24, 48, 72, 96, 120, 168, 240, and 336 h), urine (0–240 h, including time intervals 0–6, 6–12, 12–24, 24–48, 48–72, 72–96, 96–120, 120–168, 168–192, 192–216, and 216–240 h) and feces homogenates (0–240 h, including time intervals 0–6, 6–12, 12–24, 24–48, 48–72, 72–96, 96–120, 120–168, and 168–240 h) were prepared; for plasma this was done according to the method described in reference and for feces by using equal percentages per time point based on total volume. Subsequently, a pool per matrix was prepared by mixing equal volumes of each participant pool. In addition, a plasma pre-dose pool was prepared by mixing equal volumes of each pre-dose sample. For urine and feces, TNO blank pool was used to generate a pre-dose sample. Samples were stored below −18°C. Samples (100 µL plasma, 250 µL urine, and 200 mg feces) were pre-treated and injected onto an ultra-high performance liquid chromatography (UPLC)-MS system (Acquity UPLC system [Waters] coupled to a Q-Exactive [Thermo]; Acquity HSS C18 VanGuard 5 mm × 2.1 mm, 1.8 µm [Waters] pre-column and Acquity HSS C18 100 mm × 2.1 mm, 1.8 µm d.p. [Waters]). Fractions were collected and analyzed off-line by AMS. AMS analysis was performed on an AMS system, consisting of an elemental analyzer, a double gas interface, and a 1 MV multi-element AMS. All fecal homogenate sample analyzes were performed in triplicate. Plasma pre-dose and TNO blank urine and feces pools were used for background correction. The UPLC method qualification included determination of retention time stability and extraction recovery. Metabolites were tentatively assigned to fractions in which activity greater than the baseline was observed, based on retention time and structural information provided by DNDi. Presence of the metabolite was confirmed by accurate mass data from high-resolution mass spectrometric analysis.

The nature of series [2]: Urinary excretion / renal clearance of acoziborole and SCYX-3109 by LC-MS/MS. The class given is in vivo. The conditions noted are these: male, human, urine and plasma; CumAe0–240h/AUC0–240h; mean ± SD; 960 mg single oral dose of acoziborole; read-out: renal clearance CLr0–240h (converted). The protocol: Urine samples were collected before IP administration (single urine void) and then during intervals of 0–6, 6–12, 12–24, 24–48, 48–72, 72–96, 96–120, 120–168, 168–192, 192–216, and 216–240 h post-dose and for the additional 48-h collection period starting on Day 15 post-dose, that is, 336–384 h. Samples were acidified with citric acid to avoid acoziborole degradation and were refrigerated until the end of the block collection periods. The total weight and volume of urine were then recorded. At the end of each collection period, two aliquots of acidified urine (20 mL) were taken from the sample and stored in polypropylene tubes at −20°C until further analysis for total radioactivity. Two aliquots of 1 mL acidified urine were collected into tubes containing bovine serum albumin in aqueous solution (to avoid non-specific adsorption of acoziborole) and NaCl for acoziborole and SCYX-3109 assays. […]
SGS Belgium (Wavre, Belgium) performed the analysis to determine acoziborole and SCYX-3109 concentrations, using validated bioanalytical assays with liquid chromatography with tandem mass spectrometry (LC-MS/MS) with a Supelco Ascentis Express C8, 2.7 µm, 50 × 2.1 mm I.D. separation column. In plasma, the lower limit of quantification (LLOQ) was 25 ng/mL for acoziborole and 10 ng/mL for SCYX-3109. […]

On the set-up of series [3]: method as in PMID 36763327. The conditions noted are these: human, after acoziborole; cited from earlier work.
A short description of series [4]: Plasma pharmacokinetics of acoziborole and SCYX-3109 by LC-MS/MS, phase I mass balance study. Type of series: in vivo, human. The protocol:
This single-center, open-label, single group, non-randomized, single oral dose study was performed at Quotient Sciences Ltd (Ruddington, Nottingham, UK). Clinical trial authorization was obtained from the Medicines and Healthcare Products Regulatory Agency (UK). Approval for administration of [^14C]-acoziborole was obtained from an expert committee sponsored by the Department of Health and Social Care in the United Kingdom (Administration of Radioactive Substances Advisory Committee [ARSAC]), and from the ARSAC-accredited Quotient Sciences’ nuclear medicine practitioner. This study was approved by a local research ethics committee in the United Kingdom and was conducted in compliance with the Declaration of Helsinki and the International Conference on Harmonisation E6 Guideline for Good Clinical Practice. The study was registered in clinicaltrials.gov (NCT04270981) and in EudraCT (reference 2019-004059-35). Written informed consent was obtained from all participants before undertaking any study-related procedures.
Participants were admitted in the evening of the day before dosing (Day −1) and were dosed in the morning of Day 1, following an overnight fast from food and drink of a minimum of 9 h. They remained fasted until approximately 4 h post-dose, at which time lunch was provided. Participants remained resident in the clinic until up to 240 h after dosing (up to Day 11). […] However, due to the COVID-19 pandemic, instead of returning for the outpatient visits, participants were requested to perform home collection of feces for a 48-h period (i.e., Days 31–33, Days 59–61, Days 89–91, and Days 119–121). Collected samples were couriered to the clinical unit at the end of each collection period. A follow-up call took place 5–10 days after the final outpatient visit to ensure the well-being of participants.
Venous blood samples were collected via an indwelling cannula or by venepuncture. A 12 mL sample was taken into heparinized glass tube and chilled on ice immediately before IP administration and 3 mL samples were taken at 1, 4, 9, 12, 24, 48, 72, 96, 120, 144, 168, and 240 h and on Days 15, 31, 59, 89, and 119 after IP administration. The first 0.5 mL of blood withdrawn via cannula was discarded. One aliquot of heparinized whole blood (1 mL) per time point was stored at or below −20°C for total radioactivity analysis. The remaining blood was centrifuged, and the harvested plasma was stored at approximately −20°C for bioanalysis or transferred (exactly 1 mL) into polypropylene tubes pre-filled with 5 µL formic acid. One plasma sample (0.5 mL) was used for metabolite profiling while another (0.5 mL) was used for parent drug and SCYX-3109 metabolite analysis. The remaining plasma was used for total radioactivity analysis.
SGS Belgium (Wavre, Belgium) performed the analysis to determine acoziborole and SCYX-3109 concentrations, using validated bioanalytical assays with liquid chromatography with tandem mass spectrometry (LC-MS/MS) with a Supelco Ascentis Express C8, 2.7 µm, 50 × 2.1 mm I.D. separation column. In plasma, the lower limit of quantification (LLOQ) was 25 ng/mL for acoziborole and 10 ng/mL for SCYX-3109. In urine, the LLOQ was 10 ng/mL for both acoziborole and SCYX-3109.
PK parameters were calculated based on actual sampling times using standard non-compartmental analysis and WinNonlin version 8.1 software (Certara, Princeton, NJ, USA).
The SCYX-3109 to parent ratios were calculated based on Cmax and AUC0–∞.

Details of series [5]: method as in PMID 21707314. The conditions noted are these: cited from earlier work.

As usually defined, the Tmax is the time at which the peak concentration occurs. For orientation: Cmax means the maximum level reached in the sampled fluid or tissue. Regarding `CC(C)(O)c1ccc(NC(=O)c2ccc(F)cc2C(F)(F)F)cc1O` [SCYX-3109], the “proportion of the dose excreted, urine and feces combined” value in series [1] (0–240 h pools) was 12.3%. Moreover, in series [1] (feces homogenates 0–240 h), the “abundance relative to dose, feces” value is on record as 12.3% and the “relative abundance in radiochromatogram, feces homogenates pool” value was determined as 24.2%. Further, the “relative abundance in radiochromatogram (share of total radioactivity), plasma pool” value in series [1] (plasma pool 0–336 h, 960 mg single oral [14C]-acoziborole) is listed as “could not be detected”. Besides, the CL renal in series [2] is 0.6 mL/min. Moreover, in series [3], the “plasma concentrations at all time points” value is “very low”. Further, the AUC(0-t) in series [4] (human, plasma, po, 960 mg, 960 mg single oral dose of acoziborole, N = 6, mean ± SD, read-out: AUC0–240h in plasma) was found to be 4370 ± 1020 ng·h/mL. Also, the AUC(0-t) in series [4] (human, plasma, po, 960 mg, 960 mg single oral dose of acoziborole, N = 6, mean ± SD, read-out: AUC0–t in plasma) was 3730 ± 2320 ng·h/mL. The Tmax in series [4] (human, plasma, po, 960 mg, 960 mg single oral dose of acoziborole, N = 6, mean ± SD, read-out: tmax in plasma) worked out at 76.1 ± 28 h. Moreover, the Cmax in series [4] (male, human, plasma, 960 mg single oral dose of acoziborole, healthy males, N = 6, mean ± SD) was found to be 30.5 ± 10.7 ng/mL. Moreover, the “plasma level relative to acoziborole, AUC0–240h ratio” value in series [4] (over the 240-h period, 960 mg single oral dose) is recorded as 0.2%. The “activity of the metabolite” value in series [5] is “inactive”.
